Here are results for 2 molecules from patent publication US20250034151A1, “WEE1 INHIBITOR, PREPARATION THEREFOR, AND USE THEREOF” (JIANGSU TASLY DIYI PHARMACEUTICAL CO., LTD., priority 2022, published 2025).

SMILES strings stand for the structures.

Series [1] is described as follows: Plasma protein binding (PPB), equilibrium dialysis. As to conditions: mouse plasma, 5 h dialysis. Type of series: in vitro ADME. From the text:
1. Experimental Procedure
2. Data Processing and Parameter Calculation
On the technique in general: Equilibrium dialysis compares concentrations on both sides of a semipermeable membrane.

Series [2] concerns MIA PaCa2 cells. Nature of the series: Anti-proliferative effect on MIA PaCa2 cells by Cell Titer-Glo. As to conditions: Homo sapiens, MIA PaCa-2, 72 h, 3 days, read-out: MIA PaCa 2 (IC50, inhibition of proliferation in vitro). Type of series: cell-based. Summed up:
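Cells exposed to graded compound concentrations for 3 days at 37° C, 5% CO2, final DMSO 0.2%; viability read by CellTiter-Glo luminescence. Inhibition normalised to untreated cells (max) and medium (min); IC50 fitted by variable-slope log(inhibitor)-response model.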
In general terms: ATP-based viability assays read luminescence as a measure of living cells.

The test system of series [3] is H1299 cells. Nature of the series: Anti-proliferative effect on H1299 cells by Cell Titer-Glo. Type of series: cell-based. To be noted: Homo sapiens, NCI-H1299, 72 h, 3 days, read-out: H1299 (IC50, inhibition of proliferation in vitro). A digest of the protocol: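 H1299 cells exposed to compound dilutions for 3 days at 37 °C, 5% CO2, final DMSO 0.2%. Viability read by CellTiter-Glo luminescence, normalised to untreated-cell (max) and medium (min) controls. IC50 from a variable-slope log(inhibitor) vs. response fit.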

Series [4] is described as follows: Pharmacokinetics on single dose in mice (intravenous and oral). Type of series: in vivo, ICR mice. To be noted: for F/%: Oral 10 mg/kg vs Intravenous 1 mg/kg; for Cmax / half-life / AUC(0-t) / MRT: male, ICR, mouse, plasma. The protocol: 1. Experimental Aim: The present experiment aimed to obtain the pharmacokinetic profile of the subject compounds in ICR mice (both intravenous and oral) 3.1.2 Test System Species: SPF grade male ICR mice Body weight/weekly age: about 30 g 4. […] 4.2 Subjects Given (Route) Intravenous: 1 mg/kg in a volume of 5 mL/kg Gavage: 10 mg/kg in a volume of 10 mL/kg Ultrasound for 5 min before administration 4.3 Subject Preparation (Concentration) Intravenous: 0.2 mg/mL Gavage: 1 mg/mL Fast overnight before administration and feed four hours after administration. […] The blood samples were stored in a refrigerator at or below −20° C. for LC-MS/MS analysis. […] LC-MS/MS Analytical Detection Used 5. Data Processing The samples were detected for drug concentration at each time point by LC-MS/MS. Pharmacokinetic parameters terminal elimination half-life (t1/2), area under the curve (AUC), apparent volume of distribution (Vd), clearance (CL), mean residence time (MRT), and Cmax were calculated using the non-compartmental model of Phoenix WinNonlin 5.2. Bioavailability (F %) was directly from serum concentration results. Mean±standard deviation (X±SD) was used for blood concentration and pharmacokinetic parameters, etc. Specific testing and analytical methods were specified in the form of protocol revisions.

A short description of series [5]: Membrane permeability study (Caco-2). Type of series: in vitro ADME. As to conditions: human; for Papp A→B at 90 min, 10 µM / Papp B→A at 90 min, 10 µM: pH 7.4, Caco-2, 10 μM; for Papp A→B at 90 min, 10 µM: apical to basolateral; for Papp B→A at 90 min, 10 µM: basolateral to apical. The protocol: Caco-2 cells were purchased from the […] (Rockville, MD). The cell culture medium was modified Eagle's medium (MEM) containing 10% inactivated fetal bovine serum and 1% non-essential amino acids.
The cells were incubated for 21-28 days after inoculation for transport experiments and the apparent permeability (Papp) of Lucifer Yellow was used to characterize and verify the compactness of the cell monolayer. […] A 10 μM working solution of the compound to be tested was added to the apical side and basolateral side of Caco-2 and incubated at 37° C. for 90 min. After the incubation, dilute the samples on the apical side and basolateral side, and the concentrations of compounds on the apical and basolateral sides were detected by LC-MS/MS, and the concentrations of the compounds were quantified by standard curve.
On the technique in general: Caco-2 monolayers are a common model of the intestinal barrier.

In series [6] the target is T1, CYP2C8 (Homo sapiens, UniProt P10632).
T1 sequence (P10632 1-490): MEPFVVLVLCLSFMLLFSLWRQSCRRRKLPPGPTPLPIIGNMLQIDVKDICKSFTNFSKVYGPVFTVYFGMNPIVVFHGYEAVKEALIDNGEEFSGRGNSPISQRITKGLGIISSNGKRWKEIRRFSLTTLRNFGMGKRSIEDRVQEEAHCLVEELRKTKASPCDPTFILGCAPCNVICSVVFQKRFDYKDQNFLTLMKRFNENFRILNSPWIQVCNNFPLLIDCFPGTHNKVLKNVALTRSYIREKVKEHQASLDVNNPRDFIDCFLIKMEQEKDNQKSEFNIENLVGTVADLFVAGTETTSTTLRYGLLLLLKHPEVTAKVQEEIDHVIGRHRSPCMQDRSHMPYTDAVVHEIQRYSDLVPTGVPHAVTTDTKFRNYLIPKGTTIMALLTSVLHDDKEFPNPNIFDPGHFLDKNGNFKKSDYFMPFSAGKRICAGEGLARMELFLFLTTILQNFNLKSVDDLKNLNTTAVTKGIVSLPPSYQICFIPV
Nature of the series: in vitro. To be noted: CYP2C8 enzyme, pH 7.4, probe DBOMF (0.001 mM).

For `C=CCn1c(=O)c2cnc(Nc3ccc(N4CCN(C)CC4)cc3)nc2n1-c1cccc(C(C)(C)O)n1` [AZD1775], the fraction unbound at 5 h, 1 µM in series [1] was 0.087. Also, the IC50 in series [2] lay within 0.1 to 1 µM. Also, the IC50 in series [3] lay in the range of 0.1 to 1 µM. This molecule had a F/% in series [4] of 32%. In series [4] (Intravenous, 1 mg/kg), this molecule had a Cmax of 250 ng/mL and a half-life of 30 min. Further, in series [5], the apparent permeability from apical to basolateral (Papp A→B) at 90 min, 10 µM was 15.6 ×10⁻⁶ cm/s and the apparent permeability from basolateral to apical (Papp B→A) at 90 min, 10 µM was 39.8 ×10⁻⁶ cm/s. In series [6], this molecule displayed an inhibition at 30 min, 1 µM of 7.1% and an inhibition at 30 min, 10 µM of 17.3%.
For `C=CCn1c(=O)c2cnc(Nc3ccc(N4CC5CC(C4)N5C)cc3)nc2n1-c1cccc(C(C)(C)O)n1` [Compound 27], the fraction unbound at 5 h, 1 µM in series [1] is 0.141. In addition, the IC50 in series [2] lay in the range of 0.1 to 1 µM. For the same molecule, the IC50 in series [3] was in the range of 0.1 to 1 µM. Moreover, the F/% in series [4] turned out to be 28.6%. For the same molecule, in series [4] (Intravenous, 1 mg/kg), the exposure AUC(0-t) is 134 ng·h/mL, the concentration peaked (Cmax) at 170 ng/mL, the MRT amounted to 39.6 min and the half-life was 46.8 min. Besides, in series [4] (Oral, 10 mg/kg), the AUC(0-t) came out at 285 ng·h/mL, the concentration peaked (Cmax) at 392 ng/mL, the MRT was found to be 66 min and the half-life was 61.8 min. Further, the efflux ratio at 90 min, 10 µM in series [5] (Caco-2, pH 7.4) amounted to 17.4. In addition, in series [5], the Papp A→B at 90 min, 10 µM was 3.07 ×10⁻⁶ cm/s and the Papp B→A at 90 min, 10 µM worked out at 53.5 ×10⁻⁶ cm/s.

In general, fraction unbound refers to free concentration divided by total concentration. A low value points to extensive binding. As a reminder, the Cmax is the peak of the concentration-time curve. In general, half-life refers to the time in which the quantity being followed falls by half. Read a low half-life as fast loss. By Papp A→B is commonly meant how fast a substance crosses the layer from the apical side. The low end stands for poor permeation, the high end for ready permeation. For orientation: Papp B→A means the apparent permeability from the basolateral to the apical side of a cell layer. What is called inhibition is the change of the read-out against control, counted positive when it falls. Lower therefore signals a weak effect. For orientation: AUC(0-t) means exposure summed from dosing to a finite time, without extrapolation to infinity. Low values mean less exposure, high ones more exposure. What is called MRT is a mean duration of stay, worked out from the concentration-time curve. One may read the efflux ratio as the permeability from basolateral to apical divided by that in the opposite direction, in the common usage.
